The source of these data is US5405849A, “Angiotensin II receptor blocking 2,3,6 substituted quinazolinones” (American Cyanamid Company, priority 1993, dated 1995).

For this assay, the system named is angiotensin II (AII) vasopressor response. As to the kind of experiment: AII challenge: antagonism of the vasopressor response of angiotensin II in conscious Okamoto-Aoki SHR. It counts as in vivo, rat (Okamoto-Aoki SHR). Conditions: for inhibition in vivo at 1 mg/kg / inhibition in vivo at 10 mg/kg / inhibition in vivo at 2 mg/kg / inhibition in vivo at 30 mg/kg / inhibition in vivo at 5 mg/kg / inhibition in vivo at 3 mg/kg / inhibition in vivo at 6 mg/kg: Rattus norvegicus; for inhibition in vivo at 1 mg/kg / inhibition in vivo at 10 mg/kg / inhibition in vivo at 2 mg/kg / inhibition in vivo at 30 mg/kg / inhibition in vivo at 3 mg/kg / inhibition in vivo at 6 mg/kg: iv; for inhibition in vivo at 5 mg/kg: po; for inhibition in vivo at 3 mg/kg: 3 mg/kg iv. An excerpt: Conscious Male Okamoto-Aoki SHR, 16-20 weeks old, weighing approximately 330 g are purchased from Charles River Labs (Wilmington, Mass.). Conscious rats are restrained in a supine position with elastic tape. The area at the base of the tail is locally anesthetized by subcutaneous infiltration with 2% procaine. The ventral caudal artery and vein are isolated, and a cannula made of polyethylene (PE) 10-20 tubing (fused together by heat) is passed into the lower abdominal aorta and vena cava, respectively. The cannula is secured, heparinized (1,000 I.U./ml), sealed and the wound is closed. The animals are placed in plastic restraining cages in an upright position. The cannula is attached to a Statham P23Db pressure transducer, and pulsatile blood pressure is recorded to 10-15 minutes with a Gould Brush recorder.
Angiotensin II (human sequence, Sigma Chem. Co., St. Louis, Mo.) of 0.05 and 0.1 ug/kg i.v. is injected into all rats (predosing response). Then a test compound, vehicle or a known angiotensin II antagonist is administered i.v., i.p. or orally to each set of rats. […] The vasopressor response of angiotensin II is measured for the increase in systolic blood pressure in mmHg. The percentage of antagonism or blockade of the vasopressor response of angiotensin II by a compound is calculated using the vasopressor response (increase in systolic blood pressure) of angiotensin II of each rat predosing the compound as 100%.

Where [1] appears, read: 1.5 h, 10 mg/kg iv, AII .05 ug/kg, 90 min.
Setting [2] is: 0.5 h, 5 mg/kg oral, AII .05 ug/kg, 30 min.
Setting [3] is: 0.5 h, 5 mg/kg oral, AII .1 ug/kg, 30 min.
Setting [4] is: 1.5 h, 5 mg/kg oral, AII .05 ug/kg, 90 min.
Where [5] appears, read: 1.5 h, 5 mg/kg oral, AII .1 ug/kg, 90 min.
[6] abbreviates: 2.5 h, 5 mg/kg oral, AII .05 ug/kg, 150 min.
Where [7] appears, read: 2.5 h, 5 mg/kg oral, AII .1 ug/kg, 150 min.

The inhibition in vivo is the relative decrease from the control value, in per cent. A lower inhibition in vivo goes with little suppression. With `CCCCc1nc2ccc(C(C)O)cc2c(=O)n1Cc1ccc(-c2ccccc2-c2nnn[nH]2)cc1` (stereo not drawn) [Example 49, 2-Butyl-6-(1-hydroxyethyl)-3-[[2'-(1H-tetrazol-5-yl)-[1,1'-biphenyl]-4-yl]methyl]-4(3H)-quinazolinone], the “Response change (systolic BP increase to AII)” value is, setting by setting: (1 mg/kg iv, AII .05 ug/kg, 30 min) 27 mmHg; (1 mg/kg iv, AII .05 ug/kg, 45 min) 25 mmHg; (1 mg/kg iv, AII .05 ug/kg, 90 min) 40 mmHg; (1 mg/kg iv, AII .1 ug/kg, 30 min) 40 mmHg; (1 mg/kg iv, AII .1 ug/kg, 45 min) 25 mmHg; (1 mg/kg iv, AII .1 ug/kg, 90 min) 40 mmHg. Besides, the “Response change (systolic BP increase to AII)” value (2 mg/kg iv, AII .05 ug/kg, 120 min) stood at 10 mmHg; the “Response change (systolic BP increase to AII)” value (2 mg/kg iv, AII .05 ug/kg, 150 min) worked out at 35 mmHg; the “Response change (systolic BP increase to AII)” value (2 mg/kg iv, AII .05 ug/kg, 180 min) stood at 50 mmHg; the “Response change (systolic BP increase to AII)” value (2 mg/kg iv, AII .1 ug/kg, 120 min) is on record as 35 mmHg; the “Response change (systolic BP increase to AII)” value (2 mg/kg iv, AII .1 ug/kg, 150 min) worked out at 40 mmHg; the “Response change (systolic BP increase to AII)” value (2 mg/kg iv, AII .1 ug/kg, 180 min) was 55 mmHg. Also, the “Response change (systolic BP increase to AII)” value runs as follows: (10 mg/kg iv, AII .05 ug/kg, 30 min) 0 mmHg; (10 mg/kg iv, AII .05 ug/kg, 90 min) 0 mmHg; (10 mg/kg iv, AII .1 ug/kg, 30 min) 0 mmHg. The inhibition in vivo at 1 mg/kg is 40% (0.5 h, 1 mg/kg iv, AII .05 ug/kg, 30 min); 27% (0.5 h, 1 mg/kg iv, AII .1 ug/kg, 30 min); 45% (0.75 h, 1 mg/kg iv, AII .05 ug/kg, 45 min); 55% (0.75 h, 1 mg/kg iv, AII .1 ug/kg, 45 min); 11% (1.5 h, 1 mg/kg iv, AII .05 ug/kg, 90 min); 27% (1.5 h, 1 mg/kg iv, AII .1 ug/kg, 90 min). At 10 mg/kg the inhibition in vivo (0.5 h, 10 mg/kg iv, AII .05 ug/kg, 30 min) was 100%; the inhibition in vivo at 10 mg/kg (0.5 h, 10 mg/kg iv, AII .1 ug/kg, 30 min) is 100%; the inhibition in vivo at 10 mg/kg under setting [1] came to 100%. Also, the inhibition in vivo at 2 mg/kg was 78% (2 h, 2 mg/kg iv, AII .05 ug/kg, 120 min); 36% (2 h, 2 mg/kg iv, AII .1 ug/kg, 120 min); 23% (2.5 h, 2 mg/kg iv, AII .05 ug/kg, 150 min); 27% (2.5 h, 2 mg/kg iv, AII .1 ug/kg, 150 min); 11% (3 h, 2 mg/kg iv, AII .05 ug/kg, 180 min); 0% (3 h, 2 mg/kg iv, AII .1 ug/kg, 180 min).
On to `CCCCc1nc2ccccc2c(=O)n1Cc1ccc(-c2ccccc2-c2nnn[nH]2)cc1` [Example 50], for which the “Response change (systolic BP increase to AII)” value (30 mg/kg iv, AII .05 ug/kg, 90 min) was found to be 30 mmHg. In addition, testing at 30 mg/kg (0.5 h, 30 mg/kg iv, AII .05 ug/kg, 30 min) gave an inhibition in vivo of 82%; the inhibition in vivo at 30 mg/kg (0.5 h, 30 mg/kg iv, AII .1 ug/kg, 30 min) amounted to 76%; 30 mg/kg produced 29% inhibition in vivo (1.5 h, 30 mg/kg iv, AII .05 ug/kg, 90 min); the inhibition in vivo at 30 mg/kg (1.5 h, 30 mg/kg iv, AII .1 ug/kg, 90 min) came out at 52%; the inhibition in vivo at 30 mg/kg (2.5 h, 30 mg/kg iv, AII .05 ug/kg, 150 min) was 41%; 30 mg/kg produced 48% inhibition in vivo (2.5 h, 30 mg/kg iv, AII .1 ug/kg, 150 min).
Turning to `CCCCc1nc2ccc(C(C)(C)O)cc2c(=O)n1Cc1ccc(-c2ccccc2-c2nnn[nH]2)cc1` [Example 51, 2-butyl-6-(1-hydroxy-1-methylethyl)-3-[[2'-(1H-tetrazol-5-yl)-[1,1'-biphenyl]-4-yl]methyl]-4(3H)-quinazolinone], the inhibition in vivo at 5 mg/kg was determined as 30% under setting [2]; 26% under setting [3]; 75% under setting [4]; 55% under setting [5]; 63% under setting [6]; 46% under setting [7].
For `CCCCc1nc2ccc(C(O)CC)cc2c(=O)n1Cc1ccc(-c2ccccc2-c2nnn[nH]2)cc1` (stereo not drawn) [Example 52], the “Response change (systolic BP increase to AII)” value (5 mg/kg oral, AII .05 ug/kg, 30 min) stood at 25 mmHg and the “Response change (systolic BP increase to AII)” value (5 mg/kg oral, AII .05 ug/kg, 150 min) is on record as 15 mmHg. In addition, the inhibition in vivo at 5 mg/kg reads like this: under setting [2], 52%; under setting [3], 43%; under setting [4], 66%; under setting [5], 63%; under setting [6], 71%; under setting [7], 60%.
Regarding `CCCCc1nc2ccc(CO)cc2c(=O)n1Cc1ccc(-c2ccccc2-c2nnn[nH]2)cc1` [Example 53], the “Response change (systolic BP increase to AII)” value reads like this: (6 mg/kg iv, AII .025 ug/kg, 30 min) 15 mmHg; (6 mg/kg iv, AII .025 ug/kg, 90 min) 10 mmHg. Also, at 3 mg/kg the inhibition in vivo (10 min, AII .05 ug/kg) was 62%; testing at 3 mg/kg (10 min, AII .1 ug/kg) gave an inhibition in vivo of 42%; at 3 mg/kg the inhibition in vivo (0.5 h, AII .025 ug/kg, 30 min) was 53%; 3 mg/kg produced 30% inhibition in vivo (1 h, AII .05 ug/kg, 60 min); the inhibition in vivo at 3 mg/kg (1 h, AII .1 ug/kg, 60 min) stood at 13%; testing at 3 mg/kg (1.5 h, AII .025 ug/kg, 90 min) gave an inhibition in vivo of 47%. Moreover, 3 mg/kg produced 13% inhibition in vivo (1.5 h, AII .1 ug/kg, 90 min). The inhibition in vivo at 10 mg/kg reads like this: (10 min, 10 mg/kg iv, AII .05 ug/kg) 83%; (10 min, 10 mg/kg iv, AII .1 ug/kg) 90%; (0.5 h, 10 mg/kg iv, AII .05 ug/kg, 30 min, second 30/60/90 series) 76%; (0.5 h, 10 mg/kg iv, AII .1 ug/kg, 30 min, second 30/60/90 series) 60%; (1 h, 10 mg/kg iv, AII .05 ug/kg, 60 min, second 30/60/90 series) 46%; (1 h, 10 mg/kg iv, AII .1 ug/kg, 60 min, second 30/60/90 series) 44%. Further, the inhibition in vivo at 10 mg/kg was found to be 41% under setting [1]; 35% (1.5 h, 10 mg/kg iv, AII .05 ug/kg, 90 min, second 30/60/90 series); 56% (1.5 h, 10 mg/kg iv, AII .1 ug/kg, 90 min); 26% (1.5 h, 10 mg/kg iv, AII .1 ug/kg, 90 min, second 30/60/90 series). In addition, the inhibition in vivo at 6 mg/kg reads like this: (0.5 h, 6 mg/kg iv, AII .025 ug/kg, 30 min) 50%; (1.5 h, 6 mg/kg iv, AII .1 ug/kg, 90 min) 30%.
